# Measured values as given in patent US20050239656A1, “Pyridine compounds or salts thereof and herbicides containing the same” (priority 2002, published 2005).
# Test system: japanese bulrush
# Assay: Test Example 3: paddy pot test, application under submerged conditions
# Format: in vivo, Scirpus juncoides
# Conditions: active ingredient 250 g/ha; submerged application at 0.5 leaf stage; visually observed 14 days after application; 0 = non-treated, 100 = complete kill
# From the text: (§1) Paddy field soil was put into a 1/1,000,000 ha pot, and seed of barnyardgrass and japanese bulrush were sown and slightly covered with soil. Then, the pot was left to stand still in a greenhouse in a state where the depth of flooding water was from 0.5 to 1 cm, and one day or two days later, tubers of japanese ribbon wapato were planted. Thereafter, the depth of flooding water was maintained at a level of from 3 to 4 cm, and when barnyardgrass and japanese bulrush reached a 0.5 leaf stage and japanese ribbon wapato reached a primary leaf stage, an aqueous diluted solution of a wettable powder or emulsifiable concentrate having the compound of the present invention formulated in accordance with a usual formulation method, was uniformly applied under submerged conditions by a pipette so that the dose of the active ingredient would be at a predetermined level. On the 14 days after the application of the herbicide, the growth of barnyard grass, japanese burlrush and japanese ribbon wapato was visually observed and on the 21st day after the application of the herbicide, the growth of rice was visually observed, and the herbicidal effects were evaluated by the growth-controlling degrees (%) ranging from 0 (equivalent to the non-treated plot) to 100 (complete kill), whereby the results shown in Table 5 were obtained.
row,SMILES,Growth controlling degree (%) Japanese bulrush
1,CC(C)C(c1cnccc1C(F)(F)F)N(C)C(=O)C=C1CCCCC1 (stereo not drawn) [I-177],98%
2,Cc1ccc(F)c(CC(=O)N(C)C(c2cnccc2C(F)(F)F)C(C)C)c1 (stereo not drawn) [I-108],100%
3,CCN(C(=O)Cc1cccc(F)c1F)C(c1cnccc1C(F)(F)F)C(C)C (stereo not drawn) [I-77],95%
4,CCN(C(=O)Cc1ccccc1F)C(c1cnccc1C(F)(F)F)C(C)C (stereo not drawn) [I-78],70%
5,Cc1ccccc1CC(=O)N(C)C(c1cnccc1Cl)C(C)C (stereo not drawn) [I-83],98%

# Same assay, conditions: active ingredient 500 g/ha; submerged application at 0.5 leaf stage; visually observed 14 days after application; 0 = non-treated, 100 = complete kill
row,SMILES,Growth controlling degree (%) Japanese bulrush
1,CC(C)C(NC(=O)c1ccccc1)c1cnccc1C(F)(F)F (racemic) [I-115],40%
2,CC(C)C(NC(=O)Cc1ccc(C(F)(F)F)cc1)c1cnccc1C(F)(F)F (stereo not drawn) [I-7],70%
3,CC(C)C(c1cnccc1C(F)(F)F)N(C)C(=O)Cc1ccc2ccccc2c1 (stereo not drawn) [I-58],40%
4,Cc1cc(F)ccc1CC(=O)N(C)C(c1cnccc1C(F)(F)F)C(C)C (racemic) [I-116],95%
5,CC(C)C(c1cnccc1C(F)(F)F)N(C)C(=O)C=Cc1ccc2ccccc2c1 (stereo not drawn) [I-188],0%
6,CC(C)C(c1cnccc1C(F)(F)F)N(C)C(=O)C=Cc1cccc(Br)c1 (stereo not drawn) [I-179],90%
7,CC(C)C(c1cccnc1)N(C)C(=O)Cc1ccccc1 (stereo not drawn) [I-93],95%

# Test system: japanese ribbon wapato
# Assay: as above
# Format: in vivo, Sagittaria pygniaea
# Conditions: active ingredient 250 g/ha; submerged application at primary leaf stage; visually observed 14 days after application; 0 = non-treated, 100 = complete kill
# From the text: as §1
row,SMILES,Growth controlling degree (%) Japanese ribbon wapato
1,CC(C)C(c1cnccc1C(F)(F)F)N(C)C(=O)C=C1CCCCC1 (stereo not drawn) [I-177],20%
2,Cc1ccc(F)c(CC(=O)N(C)C(c2cnccc2C(F)(F)F)C(C)C)c1 (stereo not drawn) [I-108],60%
3,CCN(C(=O)Cc1cccc(F)c1F)C(c1cnccc1C(F)(F)F)C(C)C (stereo not drawn) [I-77],40%
4,CCN(C(=O)Cc1ccccc1F)C(c1cnccc1C(F)(F)F)C(C)C (stereo not drawn) [I-78],40%
5,Cc1ccccc1CC(=O)N(C)C(c1cnccc1Cl)C(C)C (stereo not drawn) [I-83],20%

# Same assay, conditions: active ingredient 500 g/ha; submerged application at primary leaf stage; visually observed 14 days after application; 0 = non-treated, 100 = complete kill
row,SMILES,Growth controlling degree (%) Japanese ribbon wapato
1,CC(C)C(NC(=O)c1ccccc1)c1cnccc1C(F)(F)F (racemic) [I-115],20%
2,CC(C)C(NC(=O)Cc1ccc(C(F)(F)F)cc1)c1cnccc1C(F)(F)F (stereo not drawn) [I-7],0%
3,CC(C)C(c1cnccc1C(F)(F)F)N(C)C(=O)Cc1ccc2ccccc2c1 (stereo not drawn) [I-58],0%
4,Cc1cc(F)ccc1CC(=O)N(C)C(c1cnccc1C(F)(F)F)C(C)C (racemic) [I-116],50%
5,CC(C)C(c1cnccc1C(F)(F)F)N(C)C(=O)C=Cc1ccc2ccccc2c1 (stereo not drawn) [I-188],0%
6,CC(C)C(c1cnccc1C(F)(F)F)N(C)C(=O)C=Cc1cccc(Br)c1 (stereo not drawn) [I-179],30%
7,CC(C)C(c1cccnc1)N(C)C(=O)Cc1ccccc1 (stereo not drawn) [I-93],30%

# Test system: barnyardgrass
# Assay: as above
# Format: in vivo, Echinochloa crus-galli L.
# Conditions: active ingredient 250 g/ha; submerged application at 0.5 leaf stage; visually observed 14 days after application; 0 = non-treated, 100 = complete kill
# From the text: as §1
row,SMILES,Growth controlling degree (%) Barnyardgrass
1,CC(C)C(c1cnccc1C(F)(F)F)N(C)C(=O)C=C1CCCCC1 (stereo not drawn) [I-177],60%
2,Cc1ccc(F)c(CC(=O)N(C)C(c2cnccc2C(F)(F)F)C(C)C)c1 (stereo not drawn) [I-108],98%
3,CCN(C(=O)Cc1cccc(F)c1F)C(c1cnccc1C(F)(F)F)C(C)C (stereo not drawn) [I-77],98%
4,CCN(C(=O)Cc1ccccc1F)C(c1cnccc1C(F)(F)F)C(C)C (stereo not drawn) [I-78],100%
5,Cc1ccccc1CC(=O)N(C)C(c1cnccc1Cl)C(C)C (stereo not drawn) [I-83],98%

# Same assay, conditions: active ingredient 500 g/ha; submerged application at 0.5 leaf stage; visually observed 14 days after application; 0 = non-treated, 100 = complete kill
row,SMILES,Growth controlling degree (%) Barnyardgrass
1,CC(C)C(NC(=O)c1ccccc1)c1cnccc1C(F)(F)F (racemic) [I-115],70%
2,CC(C)C(NC(=O)Cc1ccc(C(F)(F)F)cc1)c1cnccc1C(F)(F)F (stereo not drawn) [I-7],95%
3,CC(C)C(c1cnccc1C(F)(F)F)N(C)C(=O)Cc1ccc2ccccc2c1 (stereo not drawn) [I-58],100%
4,Cc1cc(F)ccc1CC(=O)N(C)C(c1cnccc1C(F)(F)F)C(C)C (racemic) [I-116],100%
5,CC(C)C(c1cnccc1C(F)(F)F)N(C)C(=O)C=Cc1ccc2ccccc2c1 (stereo not drawn) [I-188],100%
6,CC(C)C(c1cnccc1C(F)(F)F)N(C)C(=O)C=Cc1cccc(Br)c1 (stereo not drawn) [I-179],90%
7,CC(C)C(c1cccnc1)N(C)C(=O)Cc1ccccc1 (stereo not drawn) [I-93],60%

# Test system: rice (var. Nihonbare)
# Assay: Test Example 3: paddy pot test, transplanted rice
# Format: in vivo, Oryza sativa L.
# Conditions: active ingredient 250 g/ha, applied 4th day after transplantation, visually observed 21st day after application, 0 = non-treated, 100 = complete kill
# From the text: as §1, with “On the other hand, paddy field soil was put into a 1/1,000,000 ha pot and puddled and leveled, and the depth of flooding water was from 3 to 4 cm. Next day, rice (var. Nihonbare) of 2 leaf stage was transplanted in a depth of 3 cm. On the 4th day after the transplantation, the compound of the present invention was applied in the same manner as described above. On the 14 days” for “On the 14 days”
row,SMILES,Growth controlling degree (%) Rice
1,CC(C)C(c1cnccc1C(F)(F)F)N(C)C(=O)C=C1CCCCC1 (stereo not drawn) [I-177],20%
2,Cc1ccc(F)c(CC(=O)N(C)C(c2cnccc2C(F)(F)F)C(C)C)c1 (stereo not drawn) [I-108],10%
3,CCN(C(=O)Cc1cccc(F)c1F)C(c1cnccc1C(F)(F)F)C(C)C (stereo not drawn) [I-77],0%
4,CCN(C(=O)Cc1ccccc1F)C(c1cnccc1C(F)(F)F)C(C)C (stereo not drawn) [I-78],20%
5,Cc1ccccc1CC(=O)N(C)C(c1cnccc1Cl)C(C)C (stereo not drawn) [I-83],10%

# Same assay, conditions: active ingredient 500 g/ha, applied 4th day after transplantation, visually observed 21st day after application, 0 = non-treated, 100 = complete kill
row,SMILES,Growth controlling degree (%) Rice
1,CC(C)C(NC(=O)c1ccccc1)c1cnccc1C(F)(F)F (racemic) [I-115],20%
2,CC(C)C(NC(=O)Cc1ccc(C(F)(F)F)cc1)c1cnccc1C(F)(F)F (stereo not drawn) [I-7],20%
3,CC(C)C(c1cnccc1C(F)(F)F)N(C)C(=O)Cc1ccc2ccccc2c1 (stereo not drawn) [I-58],35%
4,Cc1cc(F)ccc1CC(=O)N(C)C(c1cnccc1C(F)(F)F)C(C)C (racemic) [I-116],10%
5,CC(C)C(c1cnccc1C(F)(F)F)N(C)C(=O)C=Cc1ccc2ccccc2c1 (stereo not drawn) [I-188],0%
6,CC(C)C(c1cnccc1C(F)(F)F)N(C)C(=O)C=Cc1cccc(Br)c1 (stereo not drawn) [I-179],10%
7,CC(C)C(c1cccnc1)N(C)C(=O)Cc1ccccc1 (stereo not drawn) [I-93],0%
